Assay results: patent US10905123B2, “Herbicidal compounds” (Syngenta Participations AG, priority 2015, dated 2021)

How the values were obtained:
Format in all cases: in vivo
Conditions in all cases: Rate 1000 g/ha; evaluated after 13 days
[1] = test system: Alopecurus myosuroides (ALOMY); experiment: B1 pre-emergence herbicidal activity
Procedure: (§1) Seeds of a variety of test species were sown in standard soil in pots: Triticum aestivium (TRZAW), Oryza sativa (ORYSA), Avena fatua (AVEFA), Alopecurus myosuroides (ALOMY), Echinochloa crus-galli (ECHCG), Lolium perenne (LOLPE). After cultivation for one day (pre-emergence) under controlled conditions in a glasshouse (at 24/16° C., day/night; 14 hours light; 65% humidity), the plants were sprayed with an aqueous spray solution derived from the formulation of the technical active ingredient in acetone/water (50:50) solution containing 0.5% Tween 20 (polyoxyethelyene sorbitan monolaurate, CAS RN 9005-64-5). The test plants were then grown in a glasshouse under controlled conditions (at 24/16° C., day/night; 14 hours light; 65% humidity) and watered twice daily. After 13 days, the test was evaluated (5=total damage to plant; 0=no damage to plant).

[2] = test system: Avena fatua (AVEFA); experiment: B1 pre-emergence herbicidal activity
Procedure: as §1

[3] = test system: Echinochloa crus-galli (ECHCG); experiment: B1 pre-emergence herbicidal activity
Procedure: as §1

[4] = test system: Lolium perenne (LOLPE); experiment: B1 pre-emergence herbicidal activity
Procedure: as §1

[5] = test system: Oryza sativa (ORYSA); experiment: B1 pre-emergence herbicidal activity
Procedure: as §1

[6] = test system: Triticum aestivium (TRZAW); experiment: B1 pre-emergence herbicidal activity
Procedure: as §1

[7] = test system: Alopecurus myosuroides (ALOMY); experiment: B2 post-emergence herbicidal activity
Procedure: (§2) Seeds of a variety of test species were sown in standard soil in pots: Triticum aestivium (TRZAW), Oryza sativa (ORYSA), Avena fatua (AVEFA), Alopecurus myosuroides (ALOMY), Echinochloa crus-galli (ECHCG), Lolium perenne (LOLPE). After 8 days cultivation (post-emergence) under controlled conditions in a glasshouse (at 24/16° C., day/night; 14 hours light; 65% humidity), the plants were sprayed with an aqueous spray solution derived from the formulation of the technical active ingredient in acetone/water (50:50) solution containing 0.5% Tween 20 (polyoxyethelyene sorbitan monolaurate, CAS RN 9005-64-5). The test plants were then grown in a glasshouse under controlled conditions (at 24/16° C., day/night; 14 hours light; 65% humidity) and watered twice daily. After 13 days, the test was evaluated (5=total damage to plant; 0=no damage to plant).

[8] = test system: Avena fatua (AVEFA); experiment: B2 post-emergence herbicidal activity
Procedure: as §2

[9] = test system: Echinochloa crus-galli (ECHCG); experiment: B2 post-emergence herbicidal activity
Procedure: as §2

[10] = test system: Lolium perenne (LOLPE); experiment: B2 post-emergence herbicidal activity
Procedure: as §2

[11] = test system: Oryza sativa (ORYSA); experiment: B2 post-emergence herbicidal activity
Procedure: as §2

[12] = test system: Triticum aestivium (TRZAW); experiment: B2 post-emergence herbicidal activity
Procedure: as §2

Structure (SMILES)	Control of ALOMY after pre-emergence application (damage score 0-5) [1]	Control of AVEFA after pre-emergence application (damage score 0-5) [2]	Control of ECHCG after pre-emergence application (damage score 0-5) [3]	Control of LOLPE after pre-emergence application (damage score 0-5) [4]	Control of ORYSA after pre-emergence application (damage score 0-5) [5]	Control of TRZAW after pre-emergence application (damage score 0-5) [6]	Control of ALOMY after post-emergence application (damage score 0-5) [7]	Control of AVEFA after post-emergence application (damage score 0-5) [8]	Control of ECHCG after post-emergence application (damage score 0-5) [9]	Control of LOLPE after post-emergence application (damage score 0-5) [10]	Control of ORYSA after post-emergence application (damage score 0-5) [11]	Control of TRZAW after post-emergence application (damage score 0-5) [12]
CC(C)(C)OC(=O)Nc1cn(-c2cncnc2)nc1C(F)(F)F [Compound A4]	0	1	4	0	1	0	1	1	5	1	2	1
COC(=O)N(C)c1cn(-c2cncc(F)c2)nc1C(F)(F)F [Compound A27]	0	0	2	0	0	0	0	3	4	2	1	1
CN(C(=O)Oc1ccccc1)c1cn(-c2cncc(F)c2)nc1C(F)(F)F [Compound A46]	0	0	0	0	0	0	0	2	2	1	0	0
Cc1nn(-c2cncnc2)cc1N(C)C(=O)NC(C)(C)C [Compound A16]	1	1	2	1	1	1	1	3	4	2	0	1
CN(C(=O)OC(C)(C)C)c1cn(-c2cncc(F)c2)nc1C(F)(F)F [Compound A48]	1	0	3	1	1	1	1	3	4	2	1	1
Cc1nn(-c2cncnc2)cc1N(C)C(=O)Nc1ccc(C#N)cc1 [Compound A52]	0	0	0	0	0	0	0	0	0	0	0	0
Cc1nn(-c2cncnc2)cc1N(C)C(=O)NC1CCCCC1 [Compound A44]	0	1	1	1	1	1	1	3	1	2	0	0
CCN(C(=O)OC(C)(C)C)c1cn(-c2cncnc2)nc1C(F)(F)F [Compound A56]	0	0	1	0	0	0	1	1	1	0	0	1
C=CCN(C(=O)OC(C)(C)C)c1cn(-c2cncc(F)c2)nc1C [Compound A54]	0	0	0	0	0	0	1	1	1	1	0	0
Cc1nn(-c2cncc(F)c2)cc1N(C)C(=O)OC(C)(C)C [Compound A10]	0	2	4	1	1	0	1	3	4	1	1	0
